Measurements: patent US10174026B2, “Histone demethylase inhibitors” (CELGENE QUANTICEL RESEARCH, INC., priority 2013, dated 2019)

The compounds below were run against Jarid1A (Homo sapiens (Human), UniProt P29375) (assay: Jarid1A in vitro enzyme inhibition assay (TR-FRET)). Conditions: not given.
Jarid1A, sequence (P29375 1-1090): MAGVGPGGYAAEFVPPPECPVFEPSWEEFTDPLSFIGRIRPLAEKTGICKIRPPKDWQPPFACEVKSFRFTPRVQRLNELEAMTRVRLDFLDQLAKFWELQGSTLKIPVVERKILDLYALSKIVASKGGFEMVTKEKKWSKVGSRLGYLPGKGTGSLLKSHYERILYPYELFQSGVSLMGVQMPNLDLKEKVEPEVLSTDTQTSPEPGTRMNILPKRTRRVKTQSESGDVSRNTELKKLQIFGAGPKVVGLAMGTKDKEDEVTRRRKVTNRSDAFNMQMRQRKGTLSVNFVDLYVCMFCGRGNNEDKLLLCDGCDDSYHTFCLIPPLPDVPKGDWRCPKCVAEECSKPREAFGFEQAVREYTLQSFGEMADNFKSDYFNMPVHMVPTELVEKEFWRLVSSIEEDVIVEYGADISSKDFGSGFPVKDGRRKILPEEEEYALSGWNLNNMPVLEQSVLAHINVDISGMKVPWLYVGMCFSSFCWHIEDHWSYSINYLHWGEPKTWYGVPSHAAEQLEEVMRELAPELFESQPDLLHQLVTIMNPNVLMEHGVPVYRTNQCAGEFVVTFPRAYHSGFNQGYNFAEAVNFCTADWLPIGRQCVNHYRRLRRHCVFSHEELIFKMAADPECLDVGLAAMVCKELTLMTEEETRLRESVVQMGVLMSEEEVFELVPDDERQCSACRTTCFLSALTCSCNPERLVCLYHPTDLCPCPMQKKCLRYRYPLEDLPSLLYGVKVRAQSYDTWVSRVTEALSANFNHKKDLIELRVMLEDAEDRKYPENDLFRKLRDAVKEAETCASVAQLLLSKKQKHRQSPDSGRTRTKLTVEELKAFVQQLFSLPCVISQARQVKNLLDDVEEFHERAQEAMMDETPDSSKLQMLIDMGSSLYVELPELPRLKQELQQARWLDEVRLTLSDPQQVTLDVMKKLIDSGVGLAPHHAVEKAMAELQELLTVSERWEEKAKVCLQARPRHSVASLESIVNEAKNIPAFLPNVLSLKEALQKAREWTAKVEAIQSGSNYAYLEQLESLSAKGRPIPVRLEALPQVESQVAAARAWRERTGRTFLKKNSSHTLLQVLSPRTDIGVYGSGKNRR
Type: biochemical
Description: (§1) This assay determines the ability of a test compound to inhibit Jarid1A, Jarid1B, JMJD2C, and JMJD2A demethylase activity.
The enzymatic assay of Jarid1A activity is based upon Time Resolved-Fluorescence Resonance Energy Transfer (TR-FRET) detection.
The assay reaction was initiated by the following: 2 μl of the mixture of 900 nM H3K4me3-biotin labeled peptide and 6 μM alpha-ketoglutaric acid with 2 μl of 11-point serial diluted inhibitor in 3% DMSO was added to each well of plate, followed by the addition of 2 μl of 3 nM Jarid1A to initiate the reaction. The reaction mixture was incubated at room temp for 30 min, and terminated by the addition of 6 μl of 5 mM EDTA in LANCE detection buffer containing 50 nM Phycolink Streptavidin-allophycocyanin and 2 nM Europium-anti-H3K4me1-2 antibody.
“(±)-methyl 2-(1-hydroxy-2-methylpropyl)-1H-pyrrolo[3,2-b]-pyridine-7-carboxylate [Example 30]” gave an IC50 of 100 to 1000 nM.

Each compound was assayed on KYSE-150 cell line (assay: In vitro cell-based assay, KYSE-150 cell line: BrdU cell proliferation ELISA). Conditions: Homo sapiens; KYSE-150 cells, 168 hr, BrdU incorporation.
Description: The primary cellular assay for JMJD2C inhibition is an assay which measures cellular proliferation via Bromodeoxyuridine (BrdU) incorporation after 168 hr of compound incubation. This assay is a quantitative ELISA assay measuring DNA incorporation of BrdU during S-phase as a direct readout of cellular proliferation. The KYSE-150 cell line is a JMJD2C gene amplified cell line.
This is a colorimetric immunoassay for the quantification of cell proliferation. Cells treated for 168 hr with test compounds are assayed for their ability to go through S-phase as a measure of their proliferative potential.
The human KYSE-150 (SMAD4 mut, TP53 mut) esophageal carcinoma cell line was seeded at 2,000 cells/well on a 96-well tissue culture treated plate. After an overnight incubation, cells were treated with a test compound in an 11 point dilution series with final concentrations ranging from 100 μM to 2 nM. Cells were then incubated in the presence of compound for 168 hr. After compound incubation, the cells were assayed using a BrdU Cell Proliferation ELISA (Roche). The cells were first incubated with BrdU labeling reagent for 2 hr. After 2 hr, these BrdU incorporated cells were fixed and denatured, probed with an anti-BrdU-Peroxidase antibody for 1.5 hr and washed. Finally, a tetramethylbenzidine peroxidase substrate was added to each well for 15 min followed by H2SO4 stop solution. The plate is read at 450 nm, and the raw optical density data is transferred into XLFit (IDBS) for IC50 calculation using the formula: fit=(D+((Vmax*(x^n))/((x^n)+(Km^n))))
`COC(=O)c1ccnc2cc(Cc3ccc(Cl)c(OC)c3)[nH]c12` [Example 127, methyl 2-(4-chloro-3-methoxybenzyl)-1H-pyrrolo-[3,2-b]-pyridine-7-carboxylate] gave an IC50 of less than 100 nM.
With `COC(=O)c1ccnc2cc(Cc3ccc(F)c(F)c3)[nH]c12` [Example 125, methyl 2-(3,4-difluorobenzyl)-1H-pyrrolo[3,2-b]pyridine-7-carboxylate] the IC50 was 1000 to 10000 nM.
Compound `COC(=O)c1ccnc2cc(Cc3ccc(Cl)c(OC(F)(F)F)c3)[nH]c12` [Example 141, methyl-2-[4-chloro-3-(trifluoromethoxy)benzyl]-1H-pyrrolo[3,2-b]pyridine-7-carboxylate] has an IC50 of less than 100 nM.
`COC(=O)c1ccnc2cc(Cc3ccc(Cl)c(OCC4CC4)c3)[nH]c12` [Example 137, methyl 2-[4-chloro-3-(cyclo-propylmethoxy)benzyl]-1H-pyrrolo[3,2-b]pyridine-7-carboxylate] gave an IC50 of less than 100 nM.
`COC(=O)c1ccnc2cc(Cc3ccc(Cl)c(C(F)(F)F)c3)[nH]c12` [Example 135, methyl 2-[4-chloro-3-(trifluoromethyl)benzyl]-1H-pyrrolo[3,2-b]pyridine-7-carboxylate] showed an IC50 of less than 100 nM.
With `COC(=O)c1ccnc2cc(Cc3cc(F)c(Cl)c(Cl)c3)[nH]c12` [Example 131, methyl 2-(3,4-dichloro-5-fluorobenzyl)-1H-pyrrolo-[3,2-b]pyridine-7-carboxylate] the IC50 was less than 100 nM.
`COC(=O)c1ccnc2cc(Cc3ccc(Cl)c(Cl)c3)[nH]c12` [Example 129, methyl 2-(3,4-dichlorobenzyl)-1H-pyrrolo[3,2-b]pyridine-7-carboxylate] was tested, and the IC50 was less than 100 nM.
For `CNC(=O)c1ccnc2cc(Cc3ccc(Cl)c(OC(F)(F)F)c3)[nH]c12` [Example 144, 2-[4-chloro-3-(trifluoro-methoxy)benzyl]-N-methyl-1H-pyrrolo-[3,2-b]pyridine-7-carboxamide], the IC50 was less than 100 nM.
`COC(=O)c1ccnc2cc(Cc3ccc(Cl)c(OCC(F)(F)F)c3)[nH]c12` [Example 139, methyl-2-[4-chloro-3-(2,2,2-trifluoroethoxy)benzyl]-1H-pyrrolo[3,2-b]pyridine-7-carboxylate] showed an IC50 of less than 100 nM.
In the case of `COC(=O)c1ccnc2cc(Cc3ccc(Cl)c(C)c3)[nH]c12` [Example 133, methyl-2-(4-chloro-3-methylbenzyl)-1H-pyrrolo-[3,2-b]pyridine-7-carboxylate], the IC50 is reported as 100 to 1000 nM.
Compound `CNC(=O)c1ccnc2cc(Cc3ccc(Cl)cc3)[nH]c12` [Example 143, 2-[4-chloro-benzyl]-N-methyl-1H-pyrrolo[3,2-b]pyridine-7-carboxamide] has an IC50 of 100 to 1000 nM.

Each compound was assayed against Jarid1B (Homo sapiens (Human), UniProt Q9UGL1) (assay: Jarid1B in vitro enzyme inhibition assay (TR-FRET)). Conditions: not given.
Jarid1B, sequence (Q9UGL1 2-751): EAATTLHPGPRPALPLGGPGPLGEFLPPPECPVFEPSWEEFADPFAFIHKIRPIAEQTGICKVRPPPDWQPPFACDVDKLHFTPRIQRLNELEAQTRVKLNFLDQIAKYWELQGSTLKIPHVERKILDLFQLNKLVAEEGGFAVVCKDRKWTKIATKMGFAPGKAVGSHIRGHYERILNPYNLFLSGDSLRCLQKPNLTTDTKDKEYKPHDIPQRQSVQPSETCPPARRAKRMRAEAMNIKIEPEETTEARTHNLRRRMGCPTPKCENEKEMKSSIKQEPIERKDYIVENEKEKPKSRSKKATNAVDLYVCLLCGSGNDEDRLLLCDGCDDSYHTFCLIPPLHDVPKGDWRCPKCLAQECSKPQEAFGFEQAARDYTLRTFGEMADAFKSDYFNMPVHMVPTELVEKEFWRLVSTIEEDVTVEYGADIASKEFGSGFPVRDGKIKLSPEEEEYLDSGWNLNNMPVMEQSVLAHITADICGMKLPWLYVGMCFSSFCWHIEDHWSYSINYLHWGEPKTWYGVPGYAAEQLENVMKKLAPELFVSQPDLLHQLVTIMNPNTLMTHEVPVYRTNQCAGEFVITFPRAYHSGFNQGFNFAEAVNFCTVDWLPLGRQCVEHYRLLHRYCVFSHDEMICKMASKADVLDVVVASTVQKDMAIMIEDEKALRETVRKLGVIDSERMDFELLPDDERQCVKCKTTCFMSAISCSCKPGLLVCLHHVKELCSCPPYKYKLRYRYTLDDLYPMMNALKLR
Type: biochemical
Description: as §1
The reaction mixture was incubated at room temp for 30 min, and terminated by the addition of 6 μl of 5 mM EDTA in LANCE detection buffer containing 50 nM Phycolink Streptavidin-allophycocyanin and 2 nM Europium-anti-H3K4me1-2 antibody.
In the case of “(±)-methyl 2-(1-hydroxy-2-methylpropyl)-1H-pyrrolo[3,2-b]-pyridine-7-carboxylate [Example 30]”, the IC50 is reported as less than 100 nM.

The compounds below were run against JMJD2C (Homo sapiens (Human), UniProt Q9H3R0) (assay: JMJD2C in vitro enzyme inhibition assay (TR-FRET)). Conditions: not given.
JMJD2C, sequence (Q9H3R0 2-372): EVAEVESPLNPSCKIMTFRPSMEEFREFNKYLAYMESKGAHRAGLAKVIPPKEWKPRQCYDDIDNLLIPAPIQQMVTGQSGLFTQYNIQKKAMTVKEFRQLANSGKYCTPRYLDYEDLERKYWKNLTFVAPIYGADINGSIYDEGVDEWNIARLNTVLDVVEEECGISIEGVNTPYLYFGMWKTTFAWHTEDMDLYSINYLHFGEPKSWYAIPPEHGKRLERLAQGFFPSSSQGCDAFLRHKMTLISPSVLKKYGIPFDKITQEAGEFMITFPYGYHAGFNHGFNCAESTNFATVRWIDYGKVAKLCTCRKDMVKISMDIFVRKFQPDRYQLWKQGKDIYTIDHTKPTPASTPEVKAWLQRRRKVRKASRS
Type: biochemical
Description: as §1
Reaction product was determined quantitatively by TR-FRET after the addition of detection reagent Phycolink Streptavidin-allophycocyanin (Prozyme) and Europium-anti-di-methylated histone H3 lysine 9 (H3K9me2) antibody (PerkinElmer) in the presence of 5 mM EDTA in LANCE detection buffer (PerkinElmer) at a final concentration of 50 nM and 1 nM, respectively.
With “(±)-methyl 2-(1-hydroxy-2-methylpropyl)-1H-pyrrolo[3,2-b]-pyridine-7-carboxylate [Example 30]” the IC50 was less than 100 nM.
